# From US20120101257A1, “PROCESSES FOR PREPARING AMINO-SUBSTITUTED GAMMA-LACTAMS” (UNIVERSITE DE MONTREAL, priority 2009, published 2012)
# *1 amine or outer side, *2 acyl side, *3 side chain or, on linkers, in order; H or OH if unused. Where a SMILES comes first, the peptide text is derived from it. [ ]: non-standard residue; d: D form. The star is where a group is joined. X13 = C[C@@H](O)[C@H](C(=O)[*:2])N1C[C@H](N[*:1])CC1=O; X11 = N[C@@H]1CCN([C@H](Cc2ccc(O)cc2)C(=O)*)C1=O; d(aThr) = C[C@@H](O)[C@@H](N)C(=O)O
# Tests used:
# [1] = test system: TF-1 cells; experiment: [3H]thymidine incorporation, IL-1 induced TF-1 cell proliferation; format: cell-based, human
# Procedure: Human TF-1 cells (5×10^4 cells/well) were cultured in complete RPMI medium (GIBCO RPMI Medium 1640, Invitrogen) supplemented with GM-CSF (Granulocyte Macrophage Colony Stimulating Factor, 2 ng/ml; BD Biosource). Cells were deprived of growth factors for 18 h before preincubation with lactam peptide (1 μM) followed by treatment with IL-1β (10 or 25 ng/mL). After 24 h incubation at 37° C., [^3H]thymidine (1 μCi/mL; Amersham) was added and the cells were incubated for another 24 h. Cells were harvested, washed two times with PBS (10 mM Na2HPO4, 2 mM KH2PO4, 137 mM NaCl, 2.7 mM KCl; pH 7.4) and lysed with a 0.1 N NaOH/0.1% Triton X-100 solution. Scintillation cocktail (Fisher Scientific, 8 mL/sample) was added to the lysate, and after 3 h, radioactivity was measured (Beckman Multi-Purpose Scintillation Coulter Counter LS6500). Results were analyzed by one- or two-way ANOVA factoring for concentration or treatments. Postanova comparisons among means were performed using the Tukey-Framer method. Statistical significance was set at p<0.05. Data are presented as mean±SEM.
# [2] = lactam peptide 1 μM, IL-1β 10 or 25 ng/mL
compound,measurement,setting,value
"CC(C)C[C@@H](NC(=O)[C@@H](CCC(=O)O)NC(=O)[C@H](NC(=O)[C@H](NC(=O)[C@@H](Cc1ccc(O)cc1)N1CC[C@@H](N)C1=O)[C@@H](C)O)C(C)C)C(=O)N[C@H](C)C(N)=O [Compound 54, (R)-Agl-D-Tyr-D-Thr-D-Val-D-Glu-D-Leu-D-Ala-NH2] (X11-[d(aThr)][dV][dE][dL][dA]-NH2)","increase in efficacy compared to 101.10, inhibition of IL-1 induced TF-1 proliferation",[1]; [2],2.2 fold
D-Arg-D-Tyr-(S)-Agl-D-Val-D-Glu-D-Leu-D-Ala-NH2 [Compound 93],percentage of proliferation of TF-1 cells pre-treated with peptide,"[1]; IL-1 induced, [3H]thymidine incorporation as in Example 59",150%
"COC(=O)C[C@H]1COS(=O)(=O)N1C(=O)OCC1c2ccccc2-c2ccccc21 [(4S)-17, (4S)-Methyl-2-[3-(9-fluorenylmethoxycarbonyl)-2,2-dioxo-1,2,3-oxathiazolidin-4-yl]acetate]",melting point,,138 to 140 °C
"CC(C)C[C@@H](NC(=O)[C@@H](CCC(=O)O)NC(=O)[C@@H](C(C)C)N1CC[C@@H](NC(=O)[C@@H](Cc2ccc(O)cc2)NC(=O)[C@H](N)CCCNC(=N)N)C1=O)C(=O)N[C@H](C)C(N)=O [Compound 56, D-Arg-D-Tyr-(R)-Agl-D-Val-D-Glu-D-Leu-D-Ala-NH2]",inhibition of IL-1 induced TF-1 proliferation (in words),[1]; [2],failed to block proliferation
"CC(C)C[C@@H](NC(=O)[C@@H](CCC(=O)O)NC(=O)[C@H](NC(=O)[C@@H]([C@@H](C)O)N1C[C@H](NC(=O)[C@H](N)CCCNC(=N)N)CC1=O)C(C)C)C(=O)N[C@H](C)C(N)=O [Compound 76, D-Arg-(R)-Bgl-D-Thr-D-Val-D-Glu-D-Leu-D-Ala-NH2] (H-[dR][X13][dV][dE][dL][dA]-NH2)","increase in efficacy compared to 101.10, inhibition of IL-1 induced TF-1 proliferation",[1]; [2],1.7 fold
